The record followed here is PubChem BioAssay (NCI).

“And” between values parts separate entries of the source, which are not always exact repeats. Equal entries are not always repeated.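 Step 1: Grow cells in 96-well plates. Step 2: Expose to compound for 48 hours at 5 concentrations. Step 3: Interpolate endpoints linearly; if unreached, use highest concentration. Here, GI50 denotes the concentration required for 50% inhibition of growth. Definition used: TGI = concentration required for complete inhibition of growth.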 Where only a bound is given, the exact number is not on record here.

Holding throughout (experiment): NCI-60 cell line screen, 48 h
For experiment [1], the system named is MCF7 breast.
For experiment [2], the system named is NCI/ADR-RES ovarian.
Experiment [3] deals with MDA-MB-231 breast.
Experiment [4] deals with HL-60(TB) leukemia.
Experiment [5] relates to HS 578T breast.

With `COc1cc2c(/C=C3/C(=O)Nc4cccc(Cl)c43)c(Cl)n(Cc3ccccc3)c2cc1C`, the GI50 in experiment [1] was 3.88 µM; in experiment [2], 2.76 µM; in experiment [3], 3.38 µM; in experiment [4] it was 5.22 µM; in experiment [5], 4.34 µM. Besides, the TGI in experiment [1] is over 45.3 µM; in experiment [2], 12 µM; in experiment [3] it was 24.4 µM; in experiment [4], over 100 µM; in experiment [5] it was 66.5 µM.
Take `CCCCNC(=O)NS(=O)(=O)c1ccc(N2N=C(c3ccc(C)cc3C)CC2c2ccc(N(C)C)cc2)cc1` (centres undefined): the GI50 in experiment [1] was 2.63 µM; in experiment [2], 4.12 µM; in experiment [3], 5.36 µM; in experiment [4], 3.48 µM; in experiment [5], 3.95 µM. Moreover, the TGI in experiment [1] was over 100 µM; in experiment [2], over 100 µM; in experiment [3], 35.6 µM; in experiment [4] it was 13.6 µM; in experiment [5], over 100 µM.
As to `NC(N)=NC(N)=Nc1cc2ccccc2c2ccccc12`, the GI50 in experiment [1] was 3.7 µM; in experiment [2], 17 µM; in experiment [3], 3.52 µM; in experiment [4], 10.5 µM; in experiment [5], 11.5 µM. Also, the TGI in experiment [1] was found to be 18.8 µM; in experiment [2], 43.2 µM; in experiment [3] it was 16 µM; in experiment [4], 26.3 µM; in experiment [5], 33.8 µM.
Turning to `CCOC(=O)c1c(C)n(Cc2ccc(OC)cc2)c2c1cc(O)c1[nH]c3c(c12)CCCC3`, the GI50 was 4.97 µM in experiment [1], 0.617 µM in experiment [3], 3.03 µM in experiment [4] and 3.26 µM in experiment [5]. In addition, the TGI was 19.8 µM in experiment [1], over 100 µM in experiment [3], over 100 µM in experiment [4] and 21.8 µM in experiment [5].
As for `CC(C)CSc1nc(Nc2ccccc2)c(C#N)c(-c2ccc(F)cc2)n1`, the GI50 in experiment [1] was 22.8 µM; in experiment [2] it was 4.87 µM; in experiment [3], 2.25 µM; in experiment [4] it was over 100 µM; in experiment [5], 1.6 µM. The TGI in experiment [1] was over 100 µM; in experiment [2], 25.3 µM; in experiment [3], 13 µM; in experiment [4], over 100 µM; in experiment [5] it was 11 µM.
As to `CCCCCCCCCCC(O)C1CCC(C2CCC(C(O)CCCCC(O)CCCCCC(O)CC3=CC(C)OC3=O)O2)O1` (centres undefined), the GI50 is 23.5 µM in experiment [1], over 25 µM in experiment [2], 4.82 µM in experiment [3] and over 25 µM in experiment [4]. The TGI in experiment [1] is over 25 µM; in experiment [2], over 25 µM; in experiment [3] it was over 25 µM; in experiment [4] it was 8.62 µM and > 25 µM.
With `Cn1cc(-c2csc(-c3cccc(F)c3)n2)c2cccnc21`, the GI50 is 17.9 µM in experiment [1]; 20.3 µM in experiment [2]; 16.8 µM in experiment [3]; 14.4 µM in experiment [4]; 19.3 µM in experiment [5]. Further, the TGI in experiment [1] amounted to 43.4 µM; in experiment [2] it was 50.2 µM; in experiment [3] it was 35.3 µM; in experiment [4] it was 49.9 µM; in experiment [5], 45.5 µM.
With `COc1ccc(-c2cc3c(nn2)-c2ccccc2C3=O)cc1`, the GI50 in experiment [1] is 36.1 µM; in experiment [2], over 100 µM; in experiment [3], 70 µM; in experiment [4] it was over 100 µM; in experiment [5], over 100 µM. Moreover, the TGI in experiment [1], in experiment [2], in experiment [3], in experiment [4] and in experiment [5] was over 100 µM in each case.
Consider `COc1ccc(S(=O)(=O)N(Cc2ccc3c(n2)C=CC(C)(C)O3)C2CCC2)cc1OC`, for which the GI50 was 0.0169 µM in experiment [1]; 0.13 µM in experiment [2]; under 0.01 µM in experiment [3]; under 0.01 µM in experiment [4]; under 0.01 µM in experiment [5]. Besides, the TGI is over 38.2 µM in experiment [1]; over 100 µM in experiment [2]; 0.0131 µM in experiment [3]; 0.0249 µM in experiment [4]; 0.0677 µM in experiment [5].
For the compound `CC(C)CC(N)C(=O)O` (centres undefined), the TGI in experiment [1], in experiment [2], in experiment [3], in experiment [4] and in experiment [5] was over 100 µM each time.
With `N#C/C(C(=S)Nc1ccccc1)=C1/NN=C2c3ccccc3C(=O)NN21`, the GI50 in experiment [1] is 22.8 µM; in experiment [2], 20.6 µM; in experiment [3] it was 29.5 µM; in experiment [4], 22 µM; in experiment [5] it was 22.7 µM. Also, the TGI in experiment [1] was 77.5 µM; in experiment [2], 58.8 µM; in experiment [3] it was over 100 µM; in experiment [4], 61.7 µM; in experiment [5] it was 57.2 µM.
With `O=C(O)c1cc(N=Nc2ccc([As](=O)(O)O)cc2)ccc1O`, the TGI in experiment [1], in experiment [2], in experiment [3], in experiment [4] and in experiment [5] was over 100 µM throughout.
On to `CCCCC/C=C/C/C=C/CCCCCCCC1=NC(C)(C)CN1C(C)C`, for which the GI50 is 1.54 µM in experiment [1]; 2.32 µM in experiment [2]; 1.75 µM in experiment [3]; 1.48 µM in experiment [4]; 1.84 µM in experiment [5]. Moreover, the TGI in experiment [1] is 2.87 µM; in experiment [2], 7.44 µM; in experiment [3], 4.36 µM; in experiment [4], 3.43 µM; in experiment [5], 3.67 µM.
As to `CCCNC(=S)N/N=C(\C)c1ccccn1`, the GI50 in experiment [1] was under 0.01 µM; in experiment [2], 0.0365 µM; in experiment [3], 0.0757 µM; in experiment [5] it was 1.42 µM. The TGI in experiment [2] was over 100 µM; in experiment [3], over 100 µM; in experiment [4] it was 0.333 µM; in experiment [5] it was over 100 µM.
